# Laboratory results as given in PubChem BioAssay (NCI).
#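 Method: 48-hour compound exposure of cells in 96-well plates, five concentrations, linear interpolation of endpoints. TGI: concentration producing complete growth inhibition.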
# How the values were obtained:
# Assay in all cases: NCI-60 cell line screen, 48 h
# IGROV1 ovarian = system: IGROV1 ovarian
# SK-MEL-28 melanoma = system: SK-MEL-28 melanoma
# PC-3 prostate = system: PC-3 prostate
# NCI-H460 lung = system: NCI-H460 lung
# M14 melanoma = system: M14 melanoma
# SF-268 CNS = system: SF-268 CNS
# U251 CNS = system: U251 CNS
# HCT-116 colon = system: HCT-116 colon
# OVCAR-4 ovarian = system: OVCAR-4 ovarian
# CAKI-1 renal = system: CAKI-1 renal
# KM12 colon = system: KM12 colon
# SN12C renal = system: SN12C renal
# NCI-H522 lung = system: NCI-H522 lung
# SR leukemia = system: SR leukemia
# CCRF-CEM leukemia = system: CCRF-CEM leukemia
# SK-MEL-2 melanoma = system: SK-MEL-2 melanoma
# 786-0 renal = system: 786-0 renal
# OVCAR-8 ovarian = system: OVCAR-8 ovarian
# SNB-75 CNS = system: SNB-75 CNS
# DU-145 prostate = system: DU-145 prostate
# NCI-H23 lung = system: NCI-H23 lung
# HCC-2998 colon = system: HCC-2998 colon
# HOP-62 NSCLC = system: HOP-62 NSCLC
# MDA-MB-435 = system: MDA-MB-435
# NCI/ADR-RES ovarian = system: NCI/ADR-RES ovarian
# MOLT-4 leukemia = system: MOLT-4 leukemia
# UO-31 renal = system: UO-31 renal
# HL-60(TB) leukemia = system: HL-60(TB) leukemia
# UACC-257 melanoma = system: UACC-257 melanoma
# T-47D breast = system: T-47D breast
# SNB-19 CNS = system: SNB-19 CNS
# LOX IMVI melanoma = system: LOX IMVI melanoma
# HOP-92 NSCLC = system: HOP-92 NSCLC
# EKVX NSCLC = system: EKVX NSCLC
# SK-MEL-5 melanoma = system: SK-MEL-5 melanoma
# HT29 colon = system: HT29 colon
# MDA-MB-231 breast = system: MDA-MB-231 breast
# OVCAR-3 ovarian = system: OVCAR-3 ovarian
# SF-539 CNS = system: SF-539 CNS
# SW-620 colon = system: SW-620 colon
# SF-295 CNS = system: SF-295 CNS
# ACHN renal = system: ACHN renal
# RXF 393 renal = system: RXF 393 renal
# K-562 leukemia = system: K-562 leukemia
# HS 578T breast = system: HS 578T breast
# HCT-15 colon = system: HCT-15 colon
# MALME-3M melanoma = system: MALME-3M melanoma
# A498 renal = system: A498 renal
# A549 NSCLC = system: A549 NSCLC
# TK-10 renal = system: TK-10 renal
# OVCAR-5 ovarian = system: OVCAR-5 ovarian
# BT-549 breast = system: BT-549 breast
# MDA-N = system: MDA-N
# NCI-H226 lung = system: NCI-H226 lung
# MCF7 breast = system: MCF7 breast
# RPMI-8226 leukemia = system: RPMI-8226 leukemia
# UACC-62 melanoma = system: UACC-62 melanoma
# COLO 205 colon = system: COLO 205 colon
# SK-OV-3 ovarian = system: SK-OV-3 ovarian
smiles,measurement,setting,value
C/C(=N\NC(=S)N1CCCCCCCCCCCC1)c1ccccn1,TGI,IGROV1 ovarian,1.35 µM
same,TGI,SK-MEL-28 melanoma,2.02 µM
same,TGI,PC-3 prostate,1.1 µM
same,TGI,NCI-H460 lung,1.43 µM
same,TGI,M14 melanoma,2.15 µM
same,TGI,SF-268 CNS,2.01 µM
same,TGI,U251 CNS,0.28 µM
same,TGI,HCT-116 colon,1.66 µM
same,TGI,OVCAR-4 ovarian,1.51 µM
same,TGI,CAKI-1 renal,1.15 µM
same,TGI,KM12 colon,1.52 µM
same,TGI,SN12C renal,2.19 µM
same,TGI,NCI-H522 lung,0.408 µM
same,TGI,SR leukemia,2.28 µM
same,TGI,CCRF-CEM leukemia,1.76 µM
same,TGI,SK-MEL-2 melanoma,1.27 µM
same,TGI,786-0 renal,1.24 µM
same,TGI,OVCAR-8 ovarian,1.9 µM
same,TGI,SNB-75 CNS,1 µM
same,TGI,DU-145 prostate,1.94 µM
same,TGI,NCI-H23 lung,2.81 µM
same,TGI,HCC-2998 colon,1.63 µM
same,TGI,HOP-62 NSCLC,1.36 µM
same,TGI,MDA-MB-435,0.721 µM
same,TGI,NCI/ADR-RES ovarian,9.7 µM
same,TGI,MOLT-4 leukemia,1.07 µM
same,TGI,UO-31 renal,1.77 µM
same,TGI,HL-60(TB) leukemia,> 100 µM
same,TGI,UACC-257 melanoma,0.414 µM
same,TGI,T-47D breast,1.25 µM
same,TGI,SNB-19 CNS,2.03 µM
same,TGI,LOX IMVI melanoma,1.23 µM
same,TGI,HOP-92 NSCLC,0.42 µM
same,TGI,EKVX NSCLC,0.432 µM
same,TGI,SK-MEL-5 melanoma,0.636 µM
same,TGI,HT29 colon,1.04 µM
same,TGI,MDA-MB-231 breast,1.22 µM
same,TGI,OVCAR-3 ovarian,1.48 µM
same,TGI,SF-539 CNS,0.846 µM
same,TGI,SW-620 colon,0.692 µM
same,TGI,SF-295 CNS,1.01 µM
same,TGI,ACHN renal,1.41 µM
same,TGI,RXF 393 renal,0.536 µM
same,TGI,K-562 leukemia,0.121 µM
same,TGI,HS 578T breast,0.942 µM
same,TGI,HCT-15 colon,1.6 µM
same,TGI,MALME-3M melanoma,1.08 µM
same,TGI,A498 renal,1.32 µM
same,TGI,A549 NSCLC,1.35 µM
same,TGI,TK-10 renal,1.35 µM
same,TGI,OVCAR-5 ovarian,2.2 µM
same,TGI,BT-549 breast,1.6 µM
same,TGI,MDA-N,1.16 µM
same,TGI,NCI-H226 lung,1.02 µM
same,TGI,MCF7 breast,0.674 µM
CCN(CC)/[N+]([O-])=N/OCOC(C)=O,TGI,IGROV1 ovarian,> 100 µM
same,TGI,SK-MEL-28 melanoma,> 100 µM
same,TGI,PC-3 prostate,> 100 µM
same,TGI,RPMI-8226 leukemia,> 100 µM
same,TGI,NCI-H460 lung,> 100 µM
same,TGI,M14 melanoma,> 100 µM
same,TGI,SF-268 CNS,> 100 µM
same,TGI,U251 CNS,> 100 µM
same,TGI,HCT-116 colon,> 100 µM
same,TGI,OVCAR-4 ovarian,> 100 µM
same,TGI,CAKI-1 renal,> 100 µM
same,TGI,KM12 colon,> 100 µM
same,TGI,SN12C renal,> 100 µM
same,TGI,NCI-H522 lung,> 100 µM
same,TGI,SR leukemia,> 100 µM
same,TGI,UACC-62 melanoma,> 100 µM
same,TGI,CCRF-CEM leukemia,> 100 µM
same,TGI,SK-MEL-2 melanoma,> 100 µM
same,TGI,786-0 renal,> 100 µM
same,TGI,COLO 205 colon,> 100 µM
same,TGI,OVCAR-8 ovarian,> 100 µM
same,TGI,SNB-75 CNS,> 100 µM
same,TGI,DU-145 prostate,> 100 µM
same,TGI,NCI-H23 lung,> 100 µM
same,TGI,HCC-2998 colon,> 100 µM
same,TGI,HOP-62 NSCLC,> 100 µM
same,TGI,MDA-MB-435,> 100 µM
same,TGI,NCI/ADR-RES ovarian,> 100 µM
same,TGI,MOLT-4 leukemia,> 100 µM
same,TGI,UO-31 renal,> 100 µM
same,TGI,HL-60(TB) leukemia,> 100 µM
same,TGI,UACC-257 melanoma,> 100 µM
same,TGI,T-47D breast,> 100 µM
same,TGI,SNB-19 CNS,> 100 µM
same,TGI,LOX IMVI melanoma,> 100 µM
same,TGI,HOP-92 NSCLC,> 100 µM
same,TGI,EKVX NSCLC,> 100 µM
same,TGI,SK-MEL-5 melanoma,> 100 µM
same,TGI,HT29 colon,> 100 µM
same,TGI,MDA-MB-231 breast,> 100 µM
same,TGI,OVCAR-3 ovarian,> 100 µM
same,TGI,SK-OV-3 ovarian,> 100 µM
same,TGI,SF-539 CNS,> 100 µM
same,TGI,SW-620 colon,> 100 µM
same,TGI,SF-295 CNS,> 100 µM
same,TGI,ACHN renal,> 100 µM
same,TGI,RXF 393 renal,> 100 µM
same,TGI,K-562 leukemia,> 100 µM
same,TGI,HS 578T breast,> 100 µM
same,TGI,HCT-15 colon,> 100 µM
same,TGI,MALME-3M melanoma,> 100 µM
same,TGI,A498 renal,> 100 µM
same,TGI,A549 NSCLC,> 100 µM
same,TGI,TK-10 renal,> 100 µM
same,TGI,OVCAR-5 ovarian,> 100 µM
same,TGI,BT-549 breast,> 100 µM
same,TGI,MDA-N,> 100 µM
same,TGI,NCI-H226 lung,> 100 µM
same,TGI,MCF7 breast,> 100 µM
O=C(CCCl)NNC1=NCCCCN1,TGI,IGROV1 ovarian,> 100 µM
same,TGI,SK-MEL-28 melanoma,> 100 µM
same,TGI,PC-3 prostate,> 100 µM
same,TGI,RPMI-8226 leukemia,> 100 µM
same,TGI,NCI-H460 lung,> 100 µM
same,TGI,M14 melanoma,> 100 µM
same,TGI,SF-268 CNS,> 100 µM
same,TGI,U251 CNS,> 100 µM
same,TGI,HCT-116 colon,> 100 µM
same,TGI,OVCAR-4 ovarian,> 100 µM
same,TGI,KM12 colon,> 100 µM
same,TGI,SN12C renal,> 100 µM
same,TGI,NCI-H522 lung,> 100 µM
same,TGI,SR leukemia,> 100 µM
same,TGI,UACC-62 melanoma,> 100 µM
same,TGI,CCRF-CEM leukemia,> 100 µM
same,TGI,SK-MEL-2 melanoma,> 100 µM
same,TGI,786-0 renal,> 100 µM
same,TGI,COLO 205 colon,> 100 µM
same,TGI,OVCAR-8 ovarian,> 100 µM
same,TGI,SNB-75 CNS,> 100 µM
same,TGI,DU-145 prostate,> 100 µM
same,TGI,NCI-H23 lung,> 100 µM
same,TGI,HCC-2998 colon,> 100 µM
same,TGI,HOP-62 NSCLC,> 100 µM
same,TGI,MDA-MB-435,> 100 µM
same,TGI,NCI/ADR-RES ovarian,> 100 µM
same,TGI,MOLT-4 leukemia,> 100 µM
same,TGI,UO-31 renal,> 100 µM
same,TGI,HL-60(TB) leukemia,> 100 µM
same,TGI,UACC-257 melanoma,> 100 µM
same,TGI,T-47D breast,> 100 µM
same,TGI,SNB-19 CNS,> 100 µM
same,TGI,LOX IMVI melanoma,> 100 µM
same,TGI,HOP-92 NSCLC,> 100 µM
same,TGI,EKVX NSCLC,> 100 µM
same,TGI,SK-MEL-5 melanoma,> 100 µM
same,TGI,HT29 colon,> 100 µM
same,TGI,MDA-MB-231 breast,> 100 µM
same,TGI,OVCAR-3 ovarian,> 100 µM
same,TGI,SK-OV-3 ovarian,> 100 µM
same,TGI,SF-539 CNS,> 100 µM
same,TGI,SW-620 colon,> 100 µM
same,TGI,SF-295 CNS,> 100 µM
same,TGI,ACHN renal,> 100 µM
same,TGI,RXF 393 renal,> 100 µM
same,TGI,K-562 leukemia,> 100 µM
same,TGI,HS 578T breast,> 100 µM
same,TGI,HCT-15 colon,> 100 µM
same,TGI,MALME-3M melanoma,> 100 µM
same,TGI,A549 NSCLC,> 100 µM
same,TGI,TK-10 renal,> 100 µM
same,TGI,OVCAR-5 ovarian,> 100 µM
same,TGI,BT-549 breast,> 100 µM
same,TGI,MDA-N,> 100 µM
same,TGI,NCI-H226 lung,> 100 µM
same,TGI,MCF7 breast,> 100 µM
